From patent US20120101110A1, “Diaza-spiro[5.5]undecanes” (priority 2010, published 2012)

Columns and labels:
human orexin 2 receptors [1] = target: T1, human orexin 2 receptors (Homo sapiens, UniProt O43614); test: Calcium accumulation in cells (FLIPR), hOx2R; type: cell-based; details: cells expressing human orexin 2 receptor; inhibition of orexin A-induced calcium accumulation; Cheng and Prusoff correction
T1 sequence (O43614 1-444): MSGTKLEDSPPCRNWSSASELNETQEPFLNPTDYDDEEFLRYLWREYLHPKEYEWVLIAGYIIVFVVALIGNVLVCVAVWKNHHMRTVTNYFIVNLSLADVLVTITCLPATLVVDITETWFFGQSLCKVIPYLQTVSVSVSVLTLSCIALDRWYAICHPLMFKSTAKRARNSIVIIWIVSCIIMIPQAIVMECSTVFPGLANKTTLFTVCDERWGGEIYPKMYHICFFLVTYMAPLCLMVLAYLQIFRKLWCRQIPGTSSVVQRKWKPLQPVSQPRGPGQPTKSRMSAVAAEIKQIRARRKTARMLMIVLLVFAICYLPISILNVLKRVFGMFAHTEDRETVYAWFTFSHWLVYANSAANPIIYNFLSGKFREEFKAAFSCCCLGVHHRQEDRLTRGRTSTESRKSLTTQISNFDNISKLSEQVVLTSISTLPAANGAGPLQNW

human orexin 1 receptors [2] = target: T2, human orexin 1 receptors (Homo sapiens, UniProt O43613); test: Calcium accumulation in cells (FLIPR), hOx1R; details: for inhibition at 10 µM: read-out: FLIPR hOx1R % inhibition value
T2 sequence (O43613 1-425): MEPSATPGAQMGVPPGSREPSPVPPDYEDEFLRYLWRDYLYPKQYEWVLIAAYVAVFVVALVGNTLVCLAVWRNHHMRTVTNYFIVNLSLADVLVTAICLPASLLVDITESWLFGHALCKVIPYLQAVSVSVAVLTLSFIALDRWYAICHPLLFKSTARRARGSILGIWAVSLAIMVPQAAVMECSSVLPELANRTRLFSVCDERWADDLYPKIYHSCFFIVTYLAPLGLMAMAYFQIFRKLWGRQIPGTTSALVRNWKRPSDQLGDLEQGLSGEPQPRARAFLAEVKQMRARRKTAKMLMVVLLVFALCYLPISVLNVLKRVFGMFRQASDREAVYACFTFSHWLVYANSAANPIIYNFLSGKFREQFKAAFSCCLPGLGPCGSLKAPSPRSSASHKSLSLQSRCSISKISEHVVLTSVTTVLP

human orexin 1 receptors [3] = target: T2, human orexin 1 receptors; test: Radioligand binding assay ([3H]-SB649868 competition), hOx1R; details: competition with about 1 nM [3H]-SB649868; CHO or HEK cell membranes expressing human orexin 1 receptor
Experimental: (§1) The cell pellet was either stored at −80° C. or used directly. Before the experiments, cell membranes were re-suspended in binding assay buffer (10 mM HEPES, 0.5% (w/v) bovine serum albumin, pH 7.5) by homogenisation with a Polytron homogeniser at 50 Hz for 20 s. Cell membranes were also used as made available by commercial providers.
(§2) Bound radioactivity was measured, and data were analysed with the program XLFIT or Graphpad Prism. Protein concentration was determined according to the Bradford/BioRad Protein Assay Kit.
(§3) In competition experiments, cell homogenates (150 μl) were incubated in assay buffer (10 mM HEPES, pH 7.5, 0.5% (w/v) bovine serum albumin, 5 mM MgCl2, 1 mMCaCl2, and tween 0.05%) for 1 h at room temperature with about 1 nM of the radioligand [^3H]-SB649868, 66 Ci/mmole, 50 μl), and with various concentrations of compounds of the invention (50 μl) in triplicates; non-specific binding was determined in the presence of almorexant (10 μM). Reactions were terminated by vacuum filtration, 3 washes of ice cold wash buffer (Tris-HCl pH 7.4/10 mM, with NaCl 154 mM). Competition data is expressed in Table 2 as Kd [μM].

human orexin 2 receptors [4] = target: T1, human orexin 2 receptors; test: Radioligand binding assay ([3H]-SB649868 competition), hOx2R; details: competition with about 1 nM [3H]-SB649868; CHO or HEK cell membranes expressing human orexin 2 receptor; read-out: binding hOx2R Kd
Experimental: as §1, §2
as §3, with “μM).” for “μM). Reactions were terminated by vacuum filtration, 3 washes of ice cold wash buffer (Tris-HCl pH 7.4/10 mM, with NaCl 154 mM). Competition data is expressed in Table 2 as Kd [μM].”

Q: Which results are given for `Cc1ccnc(N2CCC3(CCCC(=O)N3Cc3ccccc3-n3nccn3)CC2)n1` [Example 16, 1-(2-(2H-1,2,3-triazol-2-yl)benzyl)-9-(4-methylpyrimidin-2-yl)-1,9-diazaspiro[5.5]undecan-2-one]?
A: Ki (human orexin 2 receptors [1]): 270 nM; inhibition at 10 µM (human orexin 1 receptors [2]): 31%

Q: `COCc1cccc(CN2CCCC3(CCN(c4nc(C)cc(C)n4)CC3)C2=O)c1` [Example 125, 9-(4,6-dimethylpyrimidin-2-yl)-2-(3-(methoxymethyl)benzyl)-2,9-diazaspiro[5.5]undecan-1-one] was tested. Which Ki (human orexin 2 receptors [1]) did it give?
A: 177 nM

Q: What about the inhibition at 10 µM (human orexin 1 receptors [2]) of the same compound?
A: 22%

Q: `COc1cncc(N2CCC3(CCCN(Cc4c[nH]c5ccccc45)C3=O)CC2)c1` [Example 62, 2-((1H-indol-3-yl)methyl)-9-(5-methoxypyridin-3-yl)-2,9-diazaspiro[5.5]undecan-1-one] was tested. Which Ki (human orexin 2 receptors [1]) did it give?
A: 117 nM

Q: What about the inhibition at 10 µM (human orexin 1 receptors [2]) of the same compound?
A: 31%

Q: `COCc1ccccc1CN1CCCC2(CCN(c3nc(C)cc(C)n3)CC2)C1=O` [Example 126, 9-(4,6-dimethylpyrimidin-2-yl)-2-(2-(methoxymethyl)benzyl)-2,9-diazaspiro[5.5]undecan-1-one] was tested. Which Ki (human orexin 2 receptors [1]) did it give?
A: 140 nM

Q: What about the inhibition at 10 µM (human orexin 1 receptors [2]) of the same compound?
A: 31%

Q: Which results are given for `O=C1N(Cc2c[nH]c3ccccc23)CCCC12CCN(c1ccnc(Cl)n1)CC2` [Example 48, 2-((1H-indol-3-yl)methyl)-9-(2-chloropyrimidin-4-yl)-2,9-diazaspiro[5.5]undecan-1-one]?
A: Ki (human orexin 2 receptors [1]): 152 nM; Ki (human orexin 1 receptors [2]): 3150 nM

Q: For `Cc1cc(N2CCC3(CCCN(Cc4c[nH]c5ccccc45)C3=O)CC2)nc(C)n1` [Example 71, 2-((1H-indol-3-yl)methyl)-9-(2,6-dimethylpyrimidin-4-yl)-2,9-diazaspiro[5.5]undecan-1-one], which Ki (human orexin 2 receptors [1]) is on record?
A: 166 nM

Q: And the inhibition at 10 µM (human orexin 1 receptors [2])?
A: 31%

Q: What does the source list for `Cc1cncc(N2CCC3(CCCN(Cc4c[nH]c5ccccc45)C3=O)CC2)c1` [Example 58, 2-((1H-indol-3-yl)methyl)-9-(5-methylpyridin-3-yl)-2,9-diazaspiro[5.5]undecan-1-one]?
A: Ki (human orexin 2 receptors [1]): 156 nM; inhibition at 10 µM (human orexin 1 receptors [2]): 31%

Q: Which Kd (human orexin 1 receptors [3]) does the source give for `Cc1cc(C)nc(N2CCC3(CCCN(Cc4ccccc4-c4nc(C)no4)C3=O)CC2)n1` [Example 1, 9-(4,6-dimethylpyrimidin-2-yl)-2-(2-(3-methyl-1,2,4-oxadiazol-5-yl)benzyl)-2,9-diazaspiro[5.5]undecan-1-one] here?
A: 2020 nM

Q: What about the Kd (human orexin 2 receptors [4]) of the same compound?
A: 66 nM

Q: How did the Ki (human orexin 2 receptors [1]) turn out when `Cc1cnc(C)c(N2CCC3(CCCN(Cc4c[nH]c5ccccc45)C3=O)CC2)n1` [Example 86, 2-((1H-indol-3-yl)methyl)-9-(3,6-dimethylpyrazin-2-yl)-2,9-diazaspiro[5.5]undecan-1-one] was run?
A: 545 nM

Q: What about the inhibition at 10 µM (human orexin 1 receptors [2]) of the same compound?
A: 22%

Q: Which results are given for `Cc1ccnc(N2CCC3(CCCN(Cc4ccccc4-n4nccn4)C3=O)CC2)n1` [Example 24, 2-(2-(2H-1,2,3-triazol-2-yl)benzyl)-9-(4-methylpyrimidin-2-yl)-2,9-diazaspiro[5.5]undecan-1-one]?
A: Ki (human orexin 2 receptors [1]): 509 nM; inhibition at 10 µM (human orexin 1 receptors [2]): < 10%

Q: With `CC(C)c1ccnc(N2CCC3(CCCN(Cc4c[nH]c5ccccc45)C3=O)CC2)n1` [Example 50, 2-((1H-indol-3-yl)methyl)-9-(4-isopropylpyrimidin-2-yl)-2,9-diazaspiro[5.5]undecan-1-one] as the compound, how does the Ki (human orexin 2 receptors [1]) read?
A: 223 nM

Q: What about the Ki (human orexin 1 receptors [2]) of the same compound?
A: 1860 nM

Q: How did the Ki (human orexin 2 receptors [1]) turn out when `N#Cc1cc(C#N)nc(N2CCC3(CCCN(Cc4c[nH]c5ccccc45)C3=O)CC2)n1` [Example 76, 2-(2-((1H-indol-3-yl)methyl)-1-oxo-2,9-diazaspiro[5.5]undecan-9-yl)pyrimidine-4,6-dicarbonitrile] was run?
A: 1130 nM

Q: And the inhibition at 10 µM (human orexin 1 receptors [2])?
A: < 10%

Q: What does the source list for `Cc1cnc(N2CCC3(CCCN(Cc4c[nH]c5ccccc45)C3=O)CC2)cn1` [Example 72, 2-((1H-indol-3-yl)methyl)-9-(5-methylpyrazin-2-yl)-2,9 diazaspiro[5.5]undecan-1-one]?
A: Ki (human orexin 2 receptors [1]): 280 nM; inhibition at 10 µM (human orexin 1 receptors [2]): 16%

Q: Which results are given for `Cc1ccnc(N2CCC3(CCCN(Cc4cccc(-c5ncccn5)c4)C3=O)CC2)n1` [Example 30, 9-(4-methylpyrimidin-2-yl)-2-(3-(pyrmidin-2-yl)benzyl)-2,9-diazaspiro[5.5]undecan-1-one]?
A: Ki (human orexin 2 receptors [1]): 686 nM; inhibition at 10 µM (human orexin 1 receptors [2]): 48%

Q: For `Cc1ccnc(N2CCC3(CCCC(=O)N3Cc3ccccc3-c3nc(C)no3)CC2)n1` [Example 99, 1-(2-(3-methyl-1,2,4-oxadiazol-5-yl)benzyl)-9-(4-methylpyrimidin-2-yl)-1,9-diazaspiro[5.5]undecan-2-one], which Ki (human orexin 2 receptors [1]) is on record?
A: 614 nM

Q: And the inhibition at 10 µM (human orexin 1 receptors [2])?
A: 12%

Q: `COc1cccc(N2CCC3(CCCN(Cc4c[nH]c5ccccc45)C3=O)CC2)c1` [Example 60, 2-((1H-indol-3-yl)methyl)-9-(3-methoxyphenyl)-2,9-diazaspiro[5.5]undecan-1-one] was tested. Which Ki (human orexin 2 receptors [1]) did it give?
A: 228 nM

Q: And the Ki (human orexin 1 receptors [2])?
A: 3110 nM

Q: Which Ki (human orexin 2 receptors [1]) does the source give for `Cc1cc(N2CCC3(CCCN(Cc4c[nH]c5ccccc45)C3=O)CC2)cc(C)n1` [Example 63, 2-((1H-indol-3-yl)methyl)-9-(2,6-dimethylpyridin-4-yl)-2,9-diazaspiro[5.5]undecan-1-one] here?
A: 1280 nM

Q: What about the inhibition at 10 µM (human orexin 1 receptors [2]) of the same compound?
A: 16%

Q: For `Cn1cc(CN2CCCC3(CCN(c4cncc(Cl)n4)CC3)C2=O)c2ccccc21` [Example 53, 9-(6-chloropyrazin-2-yl)-2-((1-methyl-1H-indol-3-yl)methyl)-2,9-diazaspiro[5.5]undecan-1-one], which Ki (human orexin 2 receptors [1]) is on record?
A: 420 nM

Q: What about the Ki (human orexin 1 receptors [2]) of the same compound?
A: 2740 nM

Q: With `COc1cc(N2CCC3(CCCN(Cc4c[nH]c5ccccc45)C3=O)CC2)ncn1` [Example 87, 2-((1H-indol-3-yl)methyl)-9-(6-methoxypyrimidin-4-yl)-2,9-diazaspiro[5.5]undecan-1-one] as the compound, how does the Ki (human orexin 2 receptors [1]) read?
A: 351 nM

Q: What about the inhibition at 10 µM (human orexin 1 receptors [2]) of the same compound?
A: 20%

Q: How did the Ki (human orexin 2 receptors [1]) turn out when `COc1nccc(N2CCC3(CCCN(Cc4c[nH]c5ccccc45)C3=O)CC2)n1` [Example 47, 2-((1H-indol-3-yl)methyl)-9-(2-methoxypyrimidin-4-yl)-2,9-diazaspiro[5.5]undecan-1-one] was run?
A: 630 nM

Q: What about the inhibition at 10 µM (human orexin 1 receptors [2]) of the same compound?
A: 25%

Q: Which results are given for `CCn1cc(CN2CCCC3(CCN(c4nc(C)cc(C)n4)CC3)C2=O)c2ccccc21` [Example 54, 9-(4,6-dimethylpyrimidin-2-yl)-2-((1-ethyl-1H-indol-3-yl)methyl)-2,9-diazaspiro[5.5]undecan-1-one]?
A: Ki (human orexin 2 receptors [1]): 149 nM; Ki (human orexin 1 receptors [2]): 3150 nM

Q: What does the source list for `O=C1N(Cc2c[nH]c3ccccc23)CCCC12CCN(c1nccc(C(F)(F)F)n1)CC2` [Example 49, 2-((1H-indol-3-yl)methyl)-9-(4-(trifluoromethyl)pyrimidin-2-yl)-2,9-diazaspiro[5.5]undecan-1-one]?
A: Ki (human orexin 2 receptors [1]): 190 nM; Ki (human orexin 1 receptors [2]): 2180 nM

Q: With `COc1cncc(N2CCC3(CCCN(Cc4c[nH]c5ncccc45)C3=O)CC2)n1` [Example 8, 2-((1H-pyrrolo[2,3-b]pyridin-3-yl)methyl)-9-(6-methoxypyrazin-2-yl)-2,9-diazaspiro[5.5]undecan-1-one] as the compound, how does the Ki (human orexin 2 receptors [1]) read?
A: 276 nM

Q: What about the inhibition at 10 µM (human orexin 1 receptors [2]) of the same compound?
A: 31%

Q: For `CCc1ccnc(N2CCC3(CCCN(Cc4c[nH]c5ccccc45)C3=O)CC2)n1` [Example 79, 2-((1H-indol-3-yl)methyl)-9-(4-ethylpyrimidin-2-yl)-2,9-diazaspiro[5.5]undecan-1-one], which Ki (human orexin 2 receptors [1]) is on record?
A: 126 nM

Q: And the Ki (human orexin 1 receptors [2])?
A: 708 nM

Q: How did the Ki (human orexin 2 receptors [1]) turn out when `Cc1cc(C)nc(N2CCC3(CCCN(Cc4c(-c5ccccc5)noc4C)C3=O)CC2)n1` [Example 23, 9-(4,6-dimethylpyrimidin-2-yl)-2-((5-methyl-3-phenylisoxazol-4-yl)methyl)-2,9-diazaspiro[5.5]undecan-1-one] was run?
A: 115 nM

Q: What about the Ki (human orexin 1 receptors [2]) of the same compound?
A: 2880 nM
